Data taken from patent US12599136B2, “Substituted isophthalic acid diamides and their use as herbicides” (Bayer Aktiengesellschaft, priority 2020, dated 2026).

Key:
Format in all cases: in vivo
Veronica persica [1] = experiment: Pre-emergence herbicidal action against VERPE; conditions: 320 g/ha
In short: (§1)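 Herbicidal effect was assessed 3 weeks after treatment by visual comparison with untreated controls, 100% denoting dead plants. Aqueous WP or EC preparations had been applied at 600 to 800 l/ha with 0.2% wetting agent to the soil covering freshly sown seeds.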

Viola tricolor [2] = experiment: Pre-emergence herbicidal action against VIOTR
In short: as §1

Setaria viridis [3] = experiment: Pre-emergence herbicidal action against SETVI
In short: as §1

Setaria viridis [4] = experiment: Post-emergence herbicidal action against SETVI; conditions: visual assessment about 3 weeks after treatment
In short: (§2)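 Post-emergence greenhouse test; one-leaf stage, 2–3 wk post-sowing, sandy loam. Foliar spray of WP/EC in water, 600–800 l/ha, +0.2% wetting agent. Visual % action at ~3 wk vs untreated (100% = plants dead).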

Amaranthus retroflexus [5] = experiment: Pre-emergence herbicidal action against AMARE; conditions: visual score after 3 weeks vs untreated controls
In short: as §1

Matricaria inodora [6] = experiment: Post-emergence herbicidal action against MATIN; conditions: visual assessment about 3 weeks after treatment
In short: as §2

Echinochloa crus-galli [7] = experiment: Pre-emergence herbicidal action against ECHCG; conditions: visual score after 3 weeks vs untreated controls
In short: as §1

Avena fatua [8] = experiment: Pre-emergence herbicidal action against AVEFA; conditions: visual score after 3 weeks vs untreated controls
In short: as §1

Stellaria media [9] = experiment: Pre-emergence herbicidal action against STEME
In short: as §1

Matricaria inodora [10] = experiment: Pre-emergence herbicidal action against MATIN; conditions: visual score after 3 weeks vs untreated controls
In short: as §1

Veronica persica [11] = experiment: Post-emergence herbicidal action against VERPE; conditions: visual assessment about 3 weeks after treatment
In short: as §2

Polygonum convolvulus = experiment: Post-emergence herbicidal action against POLCO; conditions: 80 g/ha, visual assessment about 3 weeks after treatment
In short: as §2

Avena fatua [12] = experiment: Post-emergence herbicidal action against AVEFA; conditions: visual assessment about 3 weeks after treatment
In short: as §2

Pharbitis purpurea [13] = experiment: Post-emergence herbicidal action against PHBPU; conditions: visual assessment about 3 weeks after treatment
In short: as §2

Hordeum murinum [14] = experiment: Pre-emergence herbicidal action against HORMU; conditions: visual score after 3 weeks vs untreated controls
In short: as §1

Alopecurus myosuroides [15] = experiment: Post-emergence herbicidal action against ALOMY
In short: as §2

Pharbitis purpurea [16] = experiment: Pre-emergence herbicidal action against PHBPU; conditions: 320 g/ha; visual score after 3 weeks vs untreated controls
In short: as §1

Cyperus esculentus [17] = experiment: Pre-emergence herbicidal action against CYPES; conditions: 320 g/ha; visual score after 3 weeks vs untreated controls
In short: as §1

Alopecurus myosuroides [18] = experiment: Pre-emergence herbicidal action against ALOMY; conditions: visual score after 3 weeks vs untreated controls
In short: as §1

Abutilon theophrasti [19] = experiment: Post-emergence herbicidal action against ABUTH
In short: as §2

Amaranthus retroflexus [20] = experiment: Post-emergence herbicidal action against AMARE; conditions: visual assessment about 3 weeks after treatment
In short: as §2

Viola tricolor [21] = experiment: Post-emergence herbicidal action against VIOTR
In short: as §2

Lolium rigidum [22] = experiment: Post-emergence herbicidal action against LOLRI; conditions: 80 g/ha
Description: Seeds of monocotyledonous and dicotyledonous weed and crop plants are laid out in sandy loam soil in wood-fiber pots, covered with soil and cultivated in a greenhouse under good growth conditions. 2 to 3 weeks after sowing, the test plants are treated at the one-leaf stage. The compounds of the invention, formulated in the form of wettable powders (WP) or as emulsion concentrates (EC), are then sprayed onto the green parts of the plants in the form of an aqueous suspension or emulsion at a water application rate equivalent to 600 to 800 l/ha, with addition of 0.2% wetting agent. After the test plants have been left to stand in the greenhouse under optimal growth conditions for about 3 weeks, the action of the preparations is assessed visually in comparison to untreated controls (herbicidal action in percent (%): 100% activity=the plants have died, 0% activity=like control plants). […] The tables below illustrate, in an illustrative manner, the post-emergence herbicidal action of the compounds of the invention, the herbicidal activity being stated in percent.

Hordeum murinum [23] = experiment: Post-emergence herbicidal action against HORMU
In short: as §2

Abutilon theophrasti [24] = experiment: Pre-emergence herbicidal action against ABUTH; conditions: visual score after 3 weeks vs untreated controls
In short: as §1

Lolium rigidum [25] = experiment: Pre-emergence herbicidal action against LOLRI; conditions: 320 g/ha
In short: as §1

Echinochloa crus-galli [26] = experiment: Post-emergence herbicidal action against ECHCG; conditions: visual assessment about 3 weeks after treatment
In short: as §2

Stellaria media [27] = experiment: Post-emergence herbicidal action against STEME; conditions: visual assessment about 3 weeks after treatment
In short: as §2

Cyperus esculentus [28] = experiment: Post-emergence herbicidal action against CYPES; conditions: 80 g/ha, visual assessment about 3 weeks after treatment
In short: as §2

In the case of `CN(CC1CC1)C(=O)c1c(C(F)(F)F)ccc(C(=O)Nc2nnnn2C)c1Cl` [Example 1-126], the “Pre-emergence action against VERPE” value (Veronica persica [1]) is reported as 90%, the “Pre-emergence action against VIOTR” value (Viola tricolor [2]; 80 g/ha) is reported as 100% and the “Pre-emergence action against VIOTR” value (Viola tricolor [2]; 320 g/ha) is reported as 100%. For the same compound, the “Pre-emergence action against SETVI” value (Setaria viridis [3]; 80 g/ha) was 90%, the “Pre-emergence action against SETVI” value (Setaria viridis [3]; 320 g/ha) was 100% and the “Post-emergence action against SETVI in %” value (Setaria viridis [4]; 5 g/ha) was 100%. For the same compound, the “Post-emergence action against SETVI in %” value (Setaria viridis [4]; 20 g/ha) was 100%, the “Post-emergence action against SETVI in %” value (Setaria viridis [4]; 80 g/ha) was 100% and the “Pre-emergence action against AMARE” value (Amaranthus retroflexus [5]; 20 g/ha) was 80%. The “Pre-emergence action against AMARE” value (Amaranthus retroflexus [5]; 80 g/ha) was 90%, the “Pre-emergence action against AMARE” value (Amaranthus retroflexus [5]; 320 g/ha) was 100% and the “Post-emergence action against MATIN in %” value (Matricaria inodora [6]; 5 g/ha) was 80%. The “Post-emergence action against MATIN in %” value (Matricaria inodora [6]; 20 g/ha) was 90%, the “Post-emergence action against MATIN in %” value (Matricaria inodora [6]; 80 g/ha) was 100% and the “Pre-emergence action against ECHCG” value (Echinochloa crus-galli [7]; 80 g/ha) was 90%. The “Pre-emergence action against ECHCG” value (Echinochloa crus-galli [7]; 320 g/ha) was 100%, the “Pre-emergence action against AVEFA” value (Avena fatua [8]; 80 g/ha) was 80% and the “Pre-emergence action against AVEFA” value (Avena fatua [8]; 320 g/ha) was 100%. The “Pre-emergence action against STEME” value (Stellaria media [9]; 20 g/ha) was 80%, the “Pre-emergence action against STEME” value (Stellaria media [9]; 320 g/ha) was 90% and the “Pre-emergence action against MATIN” value (Matricaria inodora [10]; 20 g/ha) was 80%. For the same compound, the “Pre-emergence action against MATIN” value (Matricaria inodora [10]; 80 g/ha) was 100%, the “Pre-emergence action against MATIN” value (Matricaria inodora [10]; 320 g/ha) was 100% and the “Post-emergence action against VERPE in %” value (Veronica persica [11]; 20 g/ha) was 80%. For the same compound, the “Post-emergence action against VERPE in %” value (Veronica persica [11]; 80 g/ha) was 80%, the “Post-emergence action against POLCO in %” value (Polygonum convolvulus) was 80% and the “Post-emergence action against AVEFA in %” value (Avena fatua [12]; 20 g/ha) was 100%. The “Post-emergence action against AVEFA in %” value (Avena fatua [12]; 80 g/ha) was 100%, the “Post-emergence action against PHBPU in %” value (Pharbitis purpurea [13]; 5 g/ha) was 90% and the “Post-emergence action against PHBPU in %” value (Pharbitis purpurea [13]; 20 g/ha) was 90%. The “Post-emergence action against PHBPU in %” value (Pharbitis purpurea [13]; 80 g/ha) was 100%, the “Pre-emergence action against HORMU” value (Hordeum murinum [14]; 80 g/ha) was 80% and the “Pre-emergence action against HORMU” value (Hordeum murinum [14]; 320 g/ha) was 100%. The “Post-emergence action against ALOMY” value (Alopecurus myosuroides [15]; 5 g/ha) was 90%, the “Post-emergence action against ALOMY” value (Alopecurus myosuroides [15]; 20 g/ha) was 100% and the “Post-emergence action against ALOMY” value (Alopecurus myosuroides [15]; 80 g/ha) was 100%. The “Pre-emergence action against PHBPU” value (Pharbitis purpurea [16]) was 80%, the “Pre-emergence action against CYPES” value (Cyperus esculentus [17]) was 90% and the “Pre-emergence action against ALOMY” value (Alopecurus myosuroides [18]; 80 g/ha) was 80%. The “Pre-emergence action against ALOMY” value (Alopecurus myosuroides [18]; 320 g/ha) was 90%, the “Post-emergence action against ABUTH” value (Abutilon theophrasti [19]; 5 g/ha) was 100% and the “Post-emergence action against ABUTH” value (Abutilon theophrasti [19]; 20 g/ha) was 100%. For the same compound, the “Post-emergence action against ABUTH” value (Abutilon theophrasti [19]; 80 g/ha) was 100%, the “Post-emergence action against AMARE in %” value (Amaranthus retroflexus [20]; 5 g/ha) was 100% and the “Post-emergence action against AMARE in %” value (Amaranthus retroflexus [20]; 20 g/ha) was 100%. For the same compound, the “Post-emergence action against AMARE in %” value (Amaranthus retroflexus [20]; 80 g/ha) was 100%, the “Post-emergence action against VIOTR in %” value (Viola tricolor [21]; 5 g/ha) was 90% and the “Post-emergence action against VIOTR in %” value (Viola tricolor [21]; 20 g/ha) was 100%. The “Post-emergence action against VIOTR in %” value (Viola tricolor [21]; 80 g/ha) was 100%, the “Post-emergence action against LOLRI in %” value (Lolium rigidum [22]) was 90% and the “Post-emergence action against HORMU in %” value (Hordeum murinum [23]; 20 g/ha) was 100%. The “Post-emergence action against HORMU in %” value (Hordeum murinum [23]; 80 g/ha) was 100%, the “Pre-emergence action against ABUTH” value (Abutilon theophrasti [24]; 20 g/ha) was 100% and the “Pre-emergence action against ABUTH” value (Abutilon theophrasti [24]; 80 g/ha) was 100%. The “Pre-emergence action against ABUTH” value (Abutilon theophrasti [24]; Dosage column 320 g/ha (heading prints 3200 g/ha)) was 100%, the “Pre-emergence action against LOLRI” value (Lolium rigidum [25]) was 90% and the “Post-emergence action against ECHCG in %” value (Echinochloa crus-galli [26]; 5 g/ha) was 80%. The “Post-emergence action against ECHCG in %” value (Echinochloa crus-galli [26]; 20 g/ha) was 100%, the “Post-emergence action against ECHCG in %” value (Echinochloa crus-galli [26]; 80 g/ha) was 100% and the “Post-emergence action against STEME in %” value (Stellaria media [27]; 5 g/ha) was 100%. For the same compound, the “Post-emergence action against STEME in %” value (Stellaria media [27]; 20 g/ha) was 100%, the “Post-emergence action against STEME in %” value (Stellaria media [27]; 80 g/ha) was 100% and the “Post-emergence action against CYPES in %” value (Cyperus esculentus [28]) was 80%.
